{"source": "patent US20240165123A1", "about": "“USE OF A COMPOUND CONTAINING A TRICYCLIC HETEROARYL GROUP” (CSPC Zhongqi Pharmaceutical Technology (Shijiazhuang) Co., …, priority 2021, published 2024)", "key": {"[1]": {"tested_on": "IMQ-induced mouse psoriasis model", "assay": "Pharmacodynamic test in the IMQ-induced mouse psoriasis model", "type": "in vivo, female Balb/c mice", "parameters": "key to Skin PASI score Erythema / Skin PASI score Scaling / Skin PASI score Thickness: PASI component score, 0-4 points; key to Skin PASI Total Score: sum of erythema, scaling, thickness scores (each 0-4); key to Skin pathological score: sum of histopathology criterion points", "settings": "Dex 3 mpk PO qd", "text": "The purpose of this test was to evaluate the pharmacodynamics of Compound (I) in the IMQ (5% imiquimod cream cream)-induced mouse psoriasis model. One of the clinical adverse effects of imiquimod is to induce the onset of psoriasis.\n• Test medicament: Compound (I) • Positive control medicament: dexamethasone (Dex) • Vehicle: 0.4% Tween 80/0.5% methylcellulose.\n• female Balb/c mice aged 5-6 weeks, number: 70.\nThe animals were randomly divided into seven groups according to the body weights on the day before the start of the experiment.\nThe animals were shaved on their back one day before applying the medicament, forming a skin exposure area having a size of about 2 cm×3 cm. The mice were induced by IMQ, and applied with 62.5 mg of 5% imiquimod cream on the bare back and the right ear at regular intervals every day for 14 days. Mice in the normal control group were applied with vaseline on the bare back and the right ear at regular intervals every day.\nThe skin thickness was measured daily from the first day of the test until the end of the test.\nThe skin thickness measurement method was as follows: the back skin and the subcutaneous tissue of the mouse were pinched with the thumb and the index finger of the left hand in the same direction as the mouse body; the skinfold thickness was measured 1 cm away from the pinched part of the left hand (near the center of the molding part) with a digital thickness gauge (with millesimal reading) held in the right hand (model BK-3281, manufacturer: Shanghai Niuhui). The thickness was in mm, and the actual thickness was the half of the measured thickness (the skin thickness=the measured value/2).\nThe ear thickness was measured daily (at the center of the auricle).\nSkin photographs were taken daily from the first day of the test until the end of the test.\nThe clinical symptoms were evaluated with the PASI evaluation standard from three indicators of the erythema (Erythema), the scale (Scaling) and the skin thickness (Thickness), and scored with 0-4 points. The total score was obtained by summing the three scores. The PASI evaluation standard was as follows: 0, asymptomatic; 1, mild; 2, moderate; 3, severe; 4, extremely severe.\nErythema: 0—no erythema visible; 1—light red; 2—red; 3—dark red; 4—extremely dark red.\nScaling: 0—no visible scale on the skin surface; 1—part of the skin lesion surface covered with scales; 2—most of the skin lesion surface covered with scales; 3—almost all of the skin lesion region covered with scales; 4—all of the skin lesion region covered with scales.\nDryness and pruritus are not included in the total score.\nOn the 14th day of the test, the spleen weight was collected.\nAfter the test, all mice were euthanized by excessive inhalation of carbon dioxide. The skin was collected and divided into four parts, one of which was fixed in a tissue fixative solution for 24 hours for the pathological is detection. It was dehydrated, then embedded in paraffin and made into 4-micron sections. Skin sections were stained with hematoxylin eosin to observe the infiltration of the stratum corneum, the epidermal layer, the dermis layer and the inflammatory cell. When measuring the thickness of the epidermal layer, the stained skin sections were scanned with a Leca Aperio CS2 scanner at 200×magnification, and then the histopathological changes were observed and scored.\nThe specific criteria of the pathological score were as follows: munro microabscess found in the epidermal layer 2.0 points; hyperkeratosis 0.5 points; parakeratosis 1.0 points; the thinning or disappearing of the granular layer 1.0 points; the thickening of acanthosis 1.0 points; the extension and fluctuation of cuticular process 0.5, 1.0 and 1.5 points respectively according to the mild, moderate and severe degrees. […]"}, "[2]": {"tested_on": "OXA-induced Balb/c mouse atopic dermatitis model", "assay": "Pharmacodynamic test in the OXA-induced mouse atopic dermatitis model", "type": "in vivo, female Balb/c mice", "text": "The purpose of this test was to evaluate the pharmacodynamics of Compound (I) in the OXA-induced Balb/c mouse atopic dermatitis model. Repeated OXA stimulation of the dorsal skin of mice could produce a long-term inflammatory reaction. This model was closer to the clinical skin inflammation and was a common model for screening and evaluating compounds with anti-inflammatory activity.\nFemale Balb/c mice aged 8-9 weeks, number: 70\nAccording to the body weight of animals in each group before administration, they were randomly divided into 7 groups with 10 animals in each group.\nOXA induction was performed on the 7th day. The induction mode was to apply 5% OXA (dissolved in the acetone/olive oil (4/1) solvent) to the back of mice near the neck in an amount of 10 μL (1.5 cm×1.5 cm). Mice in the normal control group were applied with 10 μL of the acetone/olive oil (4/1) solvent in the same way. From the 1st da to 22nd day, the immunostimulation was performed, and 100 μL of 0.1% OXA (dissolved in the acetone/olive oil (4/1) solvent) was evenly applied on the back of mice near the neck. The application was performed every two days. Mice in the normal control group were applied with 100 μL of the acetone/olive oil (4/1) solvent in the same way. On the day of the immunostimulation, measuring the skin thickness, clinically scoring and photographing were required, and the OXA application was carried out after the above work was completed.\nCompound (I) was administered by gavage twice a day (PO, bid) from the 1st to 22nd day. The administration was performed in the morning and completed before measuring the skin thickness, clinically scoring, photographing, and the OXA immunostimulation. The interval between two administrations was 8 hours.\nBody weight data were recorded twice a week.\nSkin thickness (1.5 cm×1.5 cm, the modeling area) was measured with a Mitutoyo digital indicator (Mitutoyo digimatic indicator, Type ID-C, USA) from the 1st to 22nd day. The measurement was performed every two days. If the skin thickness measurement and the OXA immunostimulation were performed on the same day, the skin thickness measurement would be preferred.\nThe skin in the modeling area was clinically scored according to the skin scoring criteria in Table 12 from the 1st to 22nd day and evaluated every two days. If the skin clinical scoring and the OXA immunostimulation were performed on the same day, the skin clinical scoring would be preferred.\nAt the end of the study, the tissue in the modeling area was stained with hematoxylin eosin for the skin pathological scoring and the epidermal thickness measurement.\nAfter the mice were sacrificed, the dorsal skin was removed and fixed in 10% neutral formalin for 24 hours. It was dehydrated, then embedded in paraffin and made into 4-micron sections. The skin sections were stained with hematoxylin eosin, and the inflammatory cell infiltration and tissue changes in the stratum corneum, the epidermis layer and the dermis layer were observed under the microscope, and the pathological scores were made. The scoring criteria were: inflammatory cell aggregation and edema, which were divided into slight 1 point, moderate 2 points, and severe 3 points; telangiectasia, which was divided into slight 1 point, moderate 2 points, and severe 3 points.\nThe specific scoring criteria of inflammatory cell aggregation were as follows: (1) slight-1 point: inflammatory cells occupied a small amount of <10% of the dermal area of the skin; (2) moderate-2 points: inflammatory cells occupied 10%-50% of the dermal area of the skin; (3) severe-3 points: the inflammatory cells occupied greater than 50% of the dermal area of the skin. […]"}, "[3]": {"settings": "Dexamethasone 3 mpk PO qd, 1st Day"}}}
{"smiles": "C[C@@H]1C[C@H]2[C@@H]3CCC4=CC(=O)C=C[C@]4(C)[C@@]3(F)[C@@H](O)C[C@]2(C)[C@@]1(O)C(=O)CO", "note": "[Dexamethasone, reference compound]", "values": [{"measurement": "Ear thickness Left", "setting": "[1]; 1st Day", "result": "0.14 ± 0.00", "unit": "mm"}, {"measurement": "Ear thickness Right", "setting": "[1]; 1st Day", "result": "0.14 ± 0.00", "unit": "mm"}, {"measurement": "Ear thickness Right-Left", "setting": "[1]; 1st Day", "result": "0.00 ± 0.00", "unit": "mm"}, {"measurement": "Skin PASI Total Score", "setting": "[1]; 1st Day", "result": "0.00 ± 0.00"}, {"measurement": "Skin PASI score Erythema", "setting": "[1]; 1st Day", "result": "0.00 ± 0.00"}, {"measurement": "Skin PASI score Scaling", "setting": "[1]; 1st Day", "result": "0.00 ± 0.00"}, {"measurement": "Skin PASI score Thickness", "setting": "[1]; 1st Day", "result": "0.00 ± 0.00"}, {"measurement": "Skin thickness", "setting": "[1]; 1st Day", "result": "0.32 ± 0.00", "unit": "mm"}, {"measurement": "Ear thickness Left", "setting": "[1]; 14th Day", "result": "0.15 ± 0.00", "unit": "mm"}, {"measurement": "Ear thickness Right", "setting": "[1]; 14th Day", "result": "0.33 ± 0.01", "unit": "mm"}, {"measurement": "Ear thickness Right-Left", "setting": "[1]; 14th Day", "result": "0.18 ± 0.00", "unit": "mm"}, {"measurement": "Skin PASI Total Score", "setting": "[1]; 14th Day", "result": "4.10 ± 0.18"}, {"measurement": "Skin PASI score Erythema", "setting": "[1]; 14th Day", "result": "2.10 ± 0.10"}, {"measurement": "Skin PASI score Scaling", "setting": "[1]; 14th Day", "result": "1.10 ± 0.10"}, {"measurement": "Skin PASI score Thickness", "setting": "[1]; 14th Day", "result": "0.90 ± 0.10"}, {"measurement": "Skin thickness", "setting": "[1]; 14th Day", "result": "0.32 ± 0.01", "unit": "mm"}, {"measurement": "Epidermal thickness", "setting": "[1]; after 14 days of treatment", "result": "84.98 ± 7.40", "unit": "μm"}, {"measurement": "IL-6 content in skin (ELISA)", "setting": "[1]; after 14 days of treatment", "result": "607.20 ± 76.89", "unit": "pg/g"}, {"measurement": "Skin pathological score", "setting": "[1]; after 14 days of treatment", "result": "3.95 ± 0.50"}, {"measurement": "Spleen weight", "setting": "[1]; after 14 days of treatment", "result": "93.79 ± 4.64", "unit": "mg"}, {"measurement": "Spleen weight/body weight (spleen index)", "setting": "[1]; after 14 days of treatment", "result": "6.17 ± 0.29", "unit": "mg/g"}, {"measurement": "TNF-alpha content in skin (ELISA)", "setting": "[1]; after 14 days of treatment", "result": "1172.53 ± 115.72", "unit": "pg/g"}, {"measurement": "Body weight", "setting": "[2]; [3]", "result": "18.08 ± 0.12", "unit": "g"}, {"measurement": "Skin clinical score", "setting": "[2]; [3]", "result": "0.4 ± 0.16"}, {"measurement": "Skin thickness (modeling area)", "setting": "[2]; Dexamethasone 3 mpk PO qd, 1st day", "result": "0.532 ± 0.012", "unit": "mm"}, {"measurement": "Body weight", "setting": "[2]; Dexamethasone 3 mpk PO qd, −7th Day", "result": "18.08 ± 0.12", "unit": "g"}, {"measurement": "Influence on the body weight of mice", "setting": "[2]; dexamethasone 3 mpk PO qd, end of the study", "result": "decreased significantly"}]}
